{
  "source": "ChEMBL document CHEMBL1158880",
  "about": "“New cembranoid diterpenes and a geranylgeraniol derivative from the common Caribbean sea whip Eunicea succinea” (1997)",
  "type_in_all_cases": "functional",
  "key": {"M14": {"system": "M14", "assay": "Cytotoxicity against human M14 cells"}, "[1]": {"assay": "Cytotoxicity against human Hs 578T cells"}, "SNB-75": {"system": "SNB-75", "assay": "Cytotoxicity against human SNB75 cells"}},
  "data": [
    {"smiles": "C=C(C)[C@H]1CC/C(C)=C/CC[C@@]2(C)O[C@@H]2CC/C(COC(C)=O)=C\\[C@@H]1O", "note": "[ASPERDIOL ACETATE]", "values": [
      {"measurement": "GI50", "setting": "M14", "value": 8.28, "unit": "µM"},
      {"measurement": "GI50", "setting": "[1]", "value": 8.28, "unit": "µM"},
      {"measurement": "GI50", "setting": "SNB-75", "value": 0.625, "unit": "µM"}
    ]}
  ]
}
